Reference: paper PMC13430218 (Clinical Cancer Research, 2026)

Assay: Plasma pharmacokinetics of rogocekib, LC-MS/MS, noncompartmental
Type: in vivo, human
Procedure: For other patients in the expansion cohort, peripheral blood samples were collected before and after the dose at 2 and 6 hours on day 1 of cycle 1, and before dose of day 1 in cycles 2 and 4.
Descriptive statistics such as medians, standard deviations, and ranges were calculated. The Kaplan–Meier method was utilized for OS and PFS analysis. PK/PD parameters were assessed using a noncompartmental approach. Exploratory biomarkers were assessed through descriptive statistics.

For `COc1ncnn2ccc(-c3cnc4nc(C)n(Cc5nnc([C@@H](C)F)o5)c4c3)c12` [rogocekib, Rogocekib], the “Tmax, median (min, max)” value (Cohort A 10 mg twice weekly, n = 1, cycle 1 day 1, oral) was 2 (2, 2) hours and the “AUC0–24 hours, geometric mean (%CV)” value (Cohort A 140 mg twice weekly, n = 6, cycle 1 day 1, oral) was 5,823.618 (22.2) hours·ng/mL.
